From patent US9080186B2, “Compositions comprising cationic amphiphiles and colipids for delivering therapeutic molecules” (Agave Pharma, Incorporated, priority 2009, dated 2015)

Assay: siRNA remaining in water (supernatant OD260) after precipitation with cationic lipid
Type: physicochemical
Parameters: unit not given here
Description: A nucleic acid/cationic lipid salt was prepared by the following method. Two mg of the cationic lipid was dissolved in 0.1 mL of chloroform in a clean, dry borosilicate clear glass vial and the chloroform was evaporated off by blowing nitrogen gas into the vial and any remaining trace amount of chloroform was removed by drying in vacuo in a vacuum chamber. The vial was removed from the vacuum chamber and 0.1 mL of ethanol was added. The vial was sealed with TEFLON®-lined cap and tightly wrapped with a sealing tape. The vial was vortexed or/and sonicated to dissolve the cationic lipid.
The solution of the cationic lipid in ethanol was added to an aqueous solution containing 1 mg siRNA. The addition of the cationic lipid to the siRNA solution caused immediate aggregation forming a water-insoluble cationic lipid/nucleic acid salt comprised of the cationic lipid and siRNA.
The water-insoluble cationic lipid/nucleic acid salt in a tube was then centrifuged in an Eppendorf microcentrifuge at maximum speed for 15 minutes to form a pellet. The supernatant after each centrifugation were collected and the amount siRNA in the supernatant was measured with OD260.
Table 2 is the summary of measurement of the ratio of siRNA/lipid which rendering siRNA insoluble in water.

Row | SMILES | siRNA remaining in water (siRNA/lipids ratio 0.5) | siRNA remaining in water (siRNA/lipids ratio 0.75) | siRNA remaining in water (siRNA/lipids ratio 1) | siRNA remaining in water (siRNA/lipids ratio 1.5) | siRNA remaining in water (siRNA/lipids ratio 2)
1 | CCCCCCCC/C=C\CCCCCCCC(=O)OCC(C[N+](C)(C)C)OC(=O)CCCCCCC/C=C\CCCCCCCC.[Cl-] (stereo not drawn) [DOTAP, N-(l-(2,3-dioleoyloxy)propyl)-N,N,N-trimethylammonium chloride] | 63 | 55 | 45 | 28 | 10
2 | CCCCCCCC/C=C\CCCCCCCCOCC(C[N+](C)(C)C)OCCCCCCCC/C=C\CCCCCCCC.[Cl-] (stereo not drawn) [DOTMA, N-[1-(2,3-dioleyloxy)propyl]-N,N,N-trimethylammonium chloride] | 61 | 57 | 46 | 29 | 6
3 | CC(C)CCC[C@@H](C)[C@H]1CC[C@H]2[C@@H]3CC=C4C[C@@H](OC(=O)NCCN(C)C)CC[C@]4(C)[C@H]3CC[C@]12C.Cl [DC-Chol, cholesteryl 3β-N-(dimethylaminoethyl)carbamate hydrochloride] | 72 | 63 | 57 | 35 | 13
